Tests used:
A20 [1] = assay: Hoechst 33342 nuclear staining (Table 3); type: cell-based, mouse; parameters: key: 0 relating to no activity; 1 relating to weak activity comprising less than 50% of the cells; score 2 relating to strong activity comprising more than 50% of the cells
Method: This assay is performed in 96 well tissue culture plates. Appropriate number of cells (adherent cells: 3 - 5*10^3, suspension cells: 8 - 10*10^3) are being seeded out in 80 µl complete medium. Adherent cells are incubated for 24 h for proper spreading out before addition of test compounds while suspension cells are immediately treated with test compounds after seeding out. The test compounds are added in 20 µl complete medium containing max 5% DMSO. The final compound concentrations in the assays are 10 µM, 3 µM,1 µM and 0.3 µM, respectively. After 24 h or 48 h incubation at culture conditions, 10 µl medium containing Hoechst 33342 dye (Sigma B-2261) at 2-5 µg/ml are added to each well. The assay plates are then further incubated for 30 minutes and subsequently analyzed with a standard inverted fluorescence microscope. The readout allows the determination of the fraction of apoptotic nuclei as well as other morphological criteria specific for apoptosis as a function of the treatment. The following scores are used: 0 relating to no activity, 1 relating to weak activity comprising less than 50% of the cells and score 2 relating to strong activity comprising more than 50% of the cells.

Ramos [2] = assay: AnnexinV/7-AAD staining; type: cell-based, human; settings: 10 µM, 24 h treatment
In short: (§1)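 Cells treated with compound at 10 µM final for 24 h, then stained with AnnexinV-GST/anti-GST Alexa 488 and 7-AAD and analysed by flow cytometry. Percent positive cells scored as 0 (<10%), 1 (10–50%) or 2 (>50%).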

A20 [3] = assay: AnnexinV/7-AAD staining; type: cell-based, mouse; settings: A20, 10 µM, 24 h treatment
In short: as §1

HeLa = assay: BrdU incorporation (proliferation); type: cell-based, human; parameters: key: 0 for no activity; 1 for a moderate inhibition; 2 for strong inhibition of proliferation; settings: 48 h
Method: (§2) Adherent cells are seeded out at 2 - 4*10^4 cells/well/ml in 24 well tissue culture plates 24 h prior to treatment. Suspension cells are seeded out at 2*10^5 cells/ml/well in 24 well plates. Compounds are added leading to final concentrations of 3 µM and 10 µM, respectively. Subsequently, BrdU (Molecular Probes #B-23151) at 10 µM final concentration is added and the plates are incubated for 48 h. After the incubation cells are processed according to standard procedures. The detection of the incorporated BrdU is done with the anti-bromodeoxyuridine Mab PRB-1, Alexa Fluor 660 conjugate (Molecular Probes #A-21306). The analysis is performed on a FACSCalibur™ by monitoring the fluorescence activity on FL3. The readout reflects DNA synthesis which is a hallmark for proliferation. The scores are defined the following: 0 for no activity, 1 for a moderate inhibition and 2 for strong inhibition of proliferation. Table 7 indicates inhibitory activities of several tested compounds on proliferation.

Jurkat = assay: BrdU incorporation (proliferation); type: cell-based, human; parameters: key: 0 for no activity; 1 for a moderate inhibition; 2 for strong inhibition of proliferation; settings: 48 h
Method: as §2

HBL 100 = assay: Hoechst 33342 nuclear staining (Table 3); type: cell-based, human; parameters: key: 0 relating to no activity; 1 relating to weak activity comprising less than 50% of the cells; score 2 relating to strong activity comprising more than 50% of the cells
In short: (§3)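 Adherent cells (3-5×10^3, pre-spread 24 h) or suspension cells (8-10×10^3) treated with compounds at 10, 3, 1 and 0.3 µM for 24 or 48 h, then Hoechst 33342 stained for 30 min. Apoptotic nuclear morphology scored by fluorescence microscopy: 0 none, 1 weak (<50% cells), 2 strong (>50% cells).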

HT 1080 = assay: Hoechst 33342 nuclear staining (Table 3); type: cell-based, human; parameters: key: 0 relating to no activity; 1 relating to weak activity comprising less than 50% of the cells; score 2 relating to strong activity comprising more than 50% of the cells
In short: as §3

Ramos [4] = assay: Hoechst 33342 nuclear staining (Table 3); type: cell-based, human; parameters: key: 0 relating to no activity; 1 relating to weak activity comprising less than 50% of the cells; score 2 relating to strong activity comprising more than 50% of the cells
In short: as §3

SKMEL 1 = assay: Hoechst 33342 nuclear staining (Table 3); type: cell-based, human; parameters: key: 0 relating to no activity; 1 relating to weak activity comprising less than 50% of the cells; score 2 relating to strong activity comprising more than 50% of the cells
In short: as §3

CCC1Cc2cc(OC)c(OC)cc2-c2cc3nc4ccccc4nc3n21 (stereo not shown) [compound 13]
Hoechst 33342 nuclear staining (A20 [1]; A20, 24h, conc 0.3 (µM)): 0 | Hoechst 33342 nuclear staining (A20 [1]; A20, 24h, conc 1 (µM)): 0 | Hoechst 33342 nuclear staining (A20 [1]; A20, 24h, conc 3 (µM)): 0 | Hoechst 33342 nuclear staining (A20 [1]; A20, 24h, conc 10 (µM)): 0 | Hoechst 33342 nuclear staining (A20 [1]; A20, 48h, conc 0.3 (µM)): 0 | Hoechst 33342 nuclear staining (A20 [1]; A20, 48h, conc 1 (µM)): 0 | Hoechst 33342 nuclear staining (A20 [1]; A20, 48h, conc 3 (µM)): 0 | Hoechst 33342 nuclear staining (A20 [1]; A20, 48h, conc 10 (µM)): 0 | percentage of positively stained cells (AnnexinV/7-AAD staining) (Ramos [2]): 2 (score 2 relates to more than 50% positivity) | percentage of positively stained cells (AnnexinV/7-AAD staining) (A20 [3]): 2 (score 2 relates to more than 50% positivity) | BrdU incorporation (inhibition of proliferation) (HeLa; 3uM): 1 | BrdU incorporation (inhibition of proliferation) (Jurkat; 3uM): 2 | BrdU incorporation (inhibition of proliferation) (Jurkat; 10uM): 2

COc1cc2c(cc1OC)-c1c(Cl)c3nc4ccccc4nc3n1C(C)C2 (stereo not shown) [compound 12]
Hoechst 33342 nuclear staining (A20 [1]; A20, 24h, conc 0.3 (µM)): 0 | Hoechst 33342 nuclear staining (A20 [1]; A20, 24h, conc 1 (µM)): 0 | Hoechst 33342 nuclear staining (A20 [1]; A20, 24h, conc 3 (µM)): 0 | Hoechst 33342 nuclear staining (A20 [1]; A20, 24h, conc 10 (µM)): 0 | Hoechst 33342 nuclear staining (A20 [1]; A20, 48h, conc 0.3 (µM)): 0 | Hoechst 33342 nuclear staining (A20 [1]; A20, 48h, conc 1 (µM)): 0 | Hoechst 33342 nuclear staining (A20 [1]; A20, 48h, conc 3 (µM)): 0 | Hoechst 33342 nuclear staining (A20 [1]; A20, 48h, conc 10 (µM)): 2 (score 2 relating to strong activity comprising more than 50% of the cells) | percentage of positively stained cells (AnnexinV/7-AAD staining) (Ramos [2]): 2 (score 2 relates to more than 50% positivity) | percentage of positively stained cells (AnnexinV/7-AAD staining) (A20 [3]): 2 (score 2 relates to more than 50% positivity) | BrdU incorporation (inhibition of proliferation) (HeLa; 3uM): 1 | BrdU incorporation (inhibition of proliferation) (HeLa; 10uM): 1 | BrdU incorporation (inhibition of proliferation) (Jurkat; 3uM): 2 | BrdU incorporation (inhibition of proliferation) (Jurkat; 10uM): 2

CC1(C)Cc2ccccc2-c2c(Br)c3nc4ccccc4nc3n21 [No. 2, 13-Bromo-6,6-dimethyl-5,6-dihydro-6a,7,12-triaza-dibenzo[a,h]fluorene]
Hoechst 33342 nuclear staining (fraction of apoptotic nuclei), score (HBL 100; HBL 100, 24h, 0.3 µM): 0 | Hoechst 33342 nuclear staining (fraction of apoptotic nuclei), score (HBL 100; HBL 100, 24h, 1 µM): 0 | Hoechst 33342 nuclear staining (fraction of apoptotic nuclei), score (HBL 100; HBL 100, 24h, 3 µM): 0 | Hoechst 33342 nuclear staining (fraction of apoptotic nuclei), score (HBL 100; HBL 100, 24h, 10 µM): 0 | Hoechst 33342 nuclear staining (fraction of apoptotic nuclei), score (HBL 100; HBL 100, 48h, 0.3 µM): 0 | Hoechst 33342 nuclear staining (fraction of apoptotic nuclei), score (HBL 100; HBL 100, 48h, 1 µM): 0 | Hoechst 33342 nuclear staining (fraction of apoptotic nuclei), score (HBL 100; HBL 100, 48h, 3 µM): 0 | Hoechst 33342 nuclear staining (fraction of apoptotic nuclei), score (HBL 100; HBL 100, 48h, 10 µM): 2 (score 2 relating to strong activity comprising more than 50% of the cells) | Hoechst 33342 nuclear staining (fraction of apoptotic nuclei), score (HT 1080; HT 1080, 24h, 0.3 µM): 0 | Hoechst 33342 nuclear staining (fraction of apoptotic nuclei), score (HT 1080; HT 1080, 24h, 1 µM): 0 | Hoechst 33342 nuclear staining (fraction of apoptotic nuclei), score (HT 1080; HT 1080, 24h, 3 µM): 0 | Hoechst 33342 nuclear staining (fraction of apoptotic nuclei), score (HT 1080; HT 1080, 24h, 10 µM): 0 | Hoechst 33342 nuclear staining (fraction of apoptotic nuclei), score (HT 1080; HT 1080, 48h, 0.3 µM): 0 | Hoechst 33342 nuclear staining (fraction of apoptotic nuclei), score (HT 1080; HT 1080, 48h, 1 µM): 0 | Hoechst 33342 nuclear staining (fraction of apoptotic nuclei), score (HT 1080; HT 1080, 48h, 3 µM): 0 | Hoechst 33342 nuclear staining (fraction of apoptotic nuclei), score (HT 1080; HT 1080, 48h, 10 µM): 1 (1 relating to weak activity comprising less than 50% of the cells) | Hoechst 33342 nuclear staining (Ramos [4]; 24h, conc 0.3 (µM)): 0 | Hoechst 33342 nuclear staining (Ramos [4]; 24h, conc 1 (µM)): 0 | Hoechst 33342 nuclear staining (Ramos [4]; 24h, conc 3 (µM)): 0 | Hoechst 33342 nuclear staining (Ramos [4]; 24h, conc 10 (µM)): 2 (score 2 relating to strong activity comprising more than 50% of the cells) | Hoechst 33342 nuclear staining (Ramos [4]; 48h, conc 0.3 (µM)): 2 (score 2 relating to strong activity comprising more than 50% of the cells) | Hoechst 33342 nuclear staining (Ramos [4]; 48h, conc 1 (µM)): 2 (score 2 relating to strong activity comprising more than 50% of the cells) | Hoechst 33342 nuclear staining (Ramos [4]; 48h, conc 3 (µM)): 2 (score 2 relating to strong activity comprising more than 50% of the cells) | Hoechst 33342 nuclear staining (Ramos [4]; 48h, conc 10 (µM)): 2 (score 2 relating to strong activity comprising more than 50% of the cells) | Hoechst 33342 nuclear staining (fraction of apoptotic nuclei), score (SKMEL 1; SKMEL 1, 24h, 0.3 µM): 0 | Hoechst 33342 nuclear staining (fraction of apoptotic nuclei), score (SKMEL 1; SKMEL 1, 24h, 1 µM): 0 | Hoechst 33342 nuclear staining (fraction of apoptotic nuclei), score (SKMEL 1; SKMEL 1, 24h, 3 µM): 0 | Hoechst 33342 nuclear staining (fraction of apoptotic nuclei), score (SKMEL 1; SKMEL 1, 24h, 10 µM): 0 | Hoechst 33342 nuclear staining (fraction of apoptotic nuclei), score (SKMEL 1; SKMEL 1, 48h, 0.3 µM): 0 | Hoechst 33342 nuclear staining (fraction of apoptotic nuclei), score (SKMEL 1; SKMEL 1, 48h, 1 µM): 0 | Hoechst 33342 nuclear staining (fraction of apoptotic nuclei), score (SKMEL 1; SKMEL 1, 48h, 3 µM): 0 | Hoechst 33342 nuclear staining (fraction of apoptotic nuclei), score (SKMEL 1; SKMEL 1, 48h, 10 µM): 0 | percentage of positively stained cells (AnnexinV/7-AAD staining) (Ramos [2]): 2 (score 2 relates to more than 50% positivity) | percentage of positively stained cells (AnnexinV/7-AAD staining) (A20 [3]): 2 (score 2 relates to more than 50% positivity)

CC1Cc2ccccc2-c2c(Cl)c3nc4ccccc4nc3n21 (stereo not shown) [compound 11]
Hoechst 33342 nuclear staining (A20 [1]; A20, 24h, conc 1 (µM)): 0 | Hoechst 33342 nuclear staining (A20 [1]; A20, 24h, conc 3 (µM)): 0 | Hoechst 33342 nuclear staining (A20 [1]; A20, 24h, conc 10 (µM)): 0 | Hoechst 33342 nuclear staining (A20 [1]; A20, 48h, conc 0.3 (µM)): 0 | Hoechst 33342 nuclear staining (A20 [1]; A20, 48h, conc 1 (µM)): 0 | Hoechst 33342 nuclear staining (A20 [1]; A20, 48h, conc 3 (µM)): 0 | Hoechst 33342 nuclear staining (A20 [1]; A20, 48h, conc 10 (µM)): 2 (score 2 relating to strong activity comprising more than 50% of the cells) | percentage of positively stained cells (AnnexinV/7-AAD staining) (Ramos [2]): 2 (score 2 relates to more than 50% positivity) | percentage of positively stained cells (AnnexinV/7-AAD staining) (A20 [3]): 1 (score 1 relates to more than 10% but less than 50%) | BrdU incorporation (inhibition of proliferation) (HeLa; 3uM): 1 | BrdU incorporation (inhibition of proliferation) (Jurkat; 3uM): 0 | BrdU incorporation (inhibition of proliferation) (Jurkat; 10uM): 2
